The values below come from paper PMC10895697 (JAC-Antimicrobial Resistance, 2024).

In brackets after ≈: the same amount, converted by molar mass. Read-outs that look alike come from different tables or passages of the source.

Series [1] relates to S. aureus 1818 (MSSA). In words: MIC/MBC by broth microdilution reference method. Format: cell-based, Staphylococcus aureus.
Series [2] relates to S. aureus ATCC 29213 (MSSA reference strain). The series can be described thus: MIC/MBC by broth microdilution reference method. Format: cell-based, Staphylococcus aureus.
The subject of series [3] is S. aureus 1333 (MSSA). The series can be described thus: MIC/MBC by broth microdilution reference method. Format: cell-based, Staphylococcus aureus.
Series [4] relates to S. aureus 1815 (MRSA). In words: MIC/MBC by broth microdilution reference method. The class given is cell-based, Staphylococcus aureus.
Series [5] has as its system S. aureus 1814 (MRSA). In words: MIC/MBC by broth microdilution reference method. Format: cell-based, Staphylococcus aureus.
The subject of series [6] is S. aureus 1817 (MSSA). In words: MIC/MBC by broth microdilution reference method. The class given is cell-based, Staphylococcus aureus.
The test system of series [7] is S. aureus 1816 (MSSA). In words: MIC/MBC by broth microdilution reference method. Format: cell-based, Staphylococcus aureus.
Series [8] has as its system all S. aureus isolates. In words: MIC/MBC by broth microdilution, summary over all isolates. Format: cell-based, Staphylococcus aureus. The note with it: for MIC: Staphylococcus aureus, read-out: MICs for all S. aureus isolates.
Series [9] has as its system S. aureus 1334 (MSSA). In words: MIC/MBC by broth microdilution reference method. Format: cell-based, Staphylococcus aureus.
The test system of series [10] is intra-macrophagic S. aureus. The series can be described thus: Macrophage infection model (THP-1), intracellular activity. The class given is cell-based, Staphylococcus aureus. The note with it: THP-1, MRSA 1814, MRSA 1815, MSSA 1333 and MSSA 1334, 2 x MIC, 24 h after treatment, vs untreated cells. On the procedure:
The macrophage infection model was performed using the THP-1 human monocytic cell line (ATCC, Rockville, USA). In brief, cells were cultured in the Roswell Park Memorial Institute (RPMI) medium supplemented with 10% FBS in T75 flasks at 37°C and 5% CO2, and were maintained through weekly transfers within passages 2 to 20. For the assays, THP-1 cells were seeded in 12-well plates and differentiated into macrophages with phorbol myristate acetate (PMA) for 72 h until they reached approximately 80% confluence. Bacterial suspensions, grown overnight in BHI, were prepared and adjusted to an moi of 10, and then introduced to the macrophages. After a 2 h coincubation to facilitate bacterial adherence, the cells were washed and treated with 100 mg/L gentamicin for 1 h. […] Finally, intracellular bacterial cells were enumerated from cellular lysates (following osmotic shock) by plating them onto BHI agar. Infected but untreated cells were used as a control in all experiments. The number of cfu in treated cells was standardized as a percentage of the controls.
Figure 2. […] Data represent the mean ± SD of three independent experiments. Intracellular cfu counts were normalized relative to untreated cells (depicted by black histograms), and differences between treated and untreated cells, as well as between the two compounds, were assessed using the Mann–Whitney U-test. ***P < 0.001; ****P < 0.0001.

Series [11] concerns intra-osteoblastic S. aureus. In words: Osteoblast infection model (MG-63), intracellular activity. The class given is cell-based, Staphylococcus aureus. The settings on record: MG-63, all four isolates (2 MSSA and 2 MRSA), 2 x MIC, 3 h after treatment, vs untreated cells. On the procedure: The osteoblast infection model was conducted using MG-63 (CRL-1427) osteoblastic cells, following previously published procedures.[19] Briefly, MG-63 cells were cultured at 37°C in a 5% CO2 environment and passaged weekly for up to 20 weeks. The culture medium used was DMEM supplemented with 10% FBS, 25 mM HEPES, 2 mM L-glutamine, with or without antibiotics (100 U/mL penicillin plus 100 mg/L streptomycin). For the assays, MG-63 cells were seeded in 24-well plates until reaching 70%–80% confluence. Bacterial cell suspensions grown overnight in BHI broth were prepared and adjusted to an moi of 50, and then introduced to the osteoblasts. After a 2 h coincubation to facilitate bacterial adhesion, MG-63 cells were rinsed and treated with 100 mg/L gentamicin for 1 h to eliminate extracellular bacterial cells. […] Finally, intracellular bacterial cells were quantified in cellular lysates (following osmotic shock) by plating them onto BHI agar.
Figure 1. […] Data represent the mean ± SD from three independent experiments. Intracellular cfu counts were normalized relative to untreated cells (depicted by black histograms), and differences between treated and untreated cells, as well as between the two compounds, were assessed using the Mann–Whitney U-test. *P < 0.05; **P < 0.01; ***P < 0.001; ****P < 0.0001.

Series [12] has as its system macrophages (THP-1). On the procedure:
(§1) In both models, the viability was assessed using the MTT assay to determine the potential cytotoxicity of antimicrobials on untreated and infected/treated cells. Briefly, an MTT solution (0.5 mg/mL) was added to the cell medium without FBS. After washing with PBS and a 30 min incubation at 37°C, the formazan crystals formed were dissolved in DMSO. Absorbance values at 540 nm were measured using a BioTek Synergy 2 microplate reader.

Series [13] relates to osteoblasts (MG-63). As to the method: as §1
The subject of series [14] is S. aureus. Also on record: method as in ref 19 (Abad et al.). The note with it: concentrations 10x or 100x respective MICs; ref 19 (Abad et al.); cited from earlier work.
[15] abbreviates: summary over all S. aureus isolates of Table 1, broth microdilution.
The mark [16] stands for this setting: strain 1818, MSSA multi-susceptible, broth microdilution.
Setting [17] is: reference strain ATCC 29213, MSSA, broth microdilution.
[18] abbreviates: strain 1333, MSSA multi-susceptible, broth microdilution.
The mark [19] stands for this setting: strain 1815, MRSA gentamicin and erythromycin resistant, broth microdilution.
The mark [20] stands for this setting: strain 1814, MRSA ciprofloxacin resistant, broth microdilution.
The mark [21] stands for this setting: strain 1817, MSSA erythromycin resistant, broth microdilution.
Where [22] appears, read: strain 1816, MSSA multi-susceptible, broth microdilution.
Where [23] appears, read: strain 1334, MSSA multi-susceptible, broth microdilution.

Turning to `CCCCCCCCCC(=O)N[C@@H](Cc1c[nH]c2ccccc12)C(=O)N[C@H](CC(N)=O)C(=O)N[C@@H](CC(=O)O)C(=O)N[C@@H]1C(=O)NCC(=O)N[C@@H](CCCN)C(=O)N[C@@H](CC(=O)O)C(=O)N[C@H](C)C(=O)N[C@@H](CC(=O)O)C(=O)NCC(=O)N[C@H](CO)C(=O)N[C@@H]([C@H](C)CC(=O)O)C(=O)N[C@@H](CC(=O)c2ccccc2N)C(=O)O[C@@H]1C` [DAP, daptomycin], the MBC turned out to be 0.5 µg/mL (≈ 0.309 µM) in series [1] (Staphylococcus aureus, MSSA); 0.5 µg/mL (≈ 0.309 µM) in series [2] (Staphylococcus aureus); 0.5 µg/mL (≈ 0.309 µM) in series [3] (Staphylococcus aureus, MSSA); 0.5 µg/mL (≈ 0.309 µM) in [4] (Staphylococcus aureus, MRSA); 0.5 µg/mL (≈ 0.309 µM) in series [5] (Staphylococcus aureus, MRSA); 0.5 µg/mL (≈ 0.309 µM) in [6] (Staphylococcus aureus, MSSA). The MBC in series [7] (Staphylococcus aureus, MSSA) turned out to be 0.5 µg/mL (≈ 0.309 µM); in [9] (Staphylococcus aureus, MSSA) it was 0.5 µg/mL (≈ 0.309 µM). Besides, the MIC turned out to be 0.25 µg/mL (≈ 0.154 µM) in series [1] (Staphylococcus aureus, MSSA); 0.25 µg/mL (≈ 0.154 µM) in [2] (Staphylococcus aureus); 0.25 µg/mL (≈ 0.154 µM) in [3] (Staphylococcus aureus, MSSA); 0.25 µg/mL (≈ 0.154 µM) in series [4] (Staphylococcus aureus, MRSA); 0.25 µg/mL (≈ 0.154 µM) in series [5] (Staphylococcus aureus, MRSA); 0.25 µg/mL (≈ 0.154 µM) in [6] (Staphylococcus aureus, MSSA). Moreover, the MIC in series [7] (Staphylococcus aureus, MSSA) is 0.25 µg/mL (≈ 0.154 µM); in [8], 0.25 µg/mL (≈ 0.154 µM); in [9] (Staphylococcus aureus, MSSA), 0.25 µg/mL (≈ 0.154 µM).

With `C[C@H]1COc2c(N3CCN(C)CC3)c(F)cc3c(=O)c(C(=O)O)cn1c23` [LVX, levofloxacin], the MBC was 0.25 µg/mL (≈ 0.692 µM) in series [1] (Staphylococcus aureus, strain 1818, MSSA multi-susceptible, broth microdilution, read-out: MBC); 0.5 µg/mL (≈ 1.38 µM) in series [2] (Staphylococcus aureus, reference strain ATCC 29213, MSSA, broth microdilution, read-out: MBC); 0.5 µg/mL (≈ 1.38 µM) in series [3] (Staphylococcus aureus, strain 1333, MSSA multi-susceptible, broth microdilution, read-out: MBC); 0.5 µg/mL (≈ 1.38 µM) in [4] (Staphylococcus aureus, strain 1815, MRSA gentamicin and erythromycin resistant, broth microdilution, read-out: MBC); 4 µg/mL (≈ 11.1 µM) in [5] (Staphylococcus aureus, strain 1814, MRSA ciprofloxacin resistant, broth microdilution, read-out: MBC); 0.25 µg/mL (≈ 0.692 µM) in [6] (Staphylococcus aureus, strain 1817, MSSA erythromycin resistant, broth microdilution, read-out: MBC). The minimum bactericidal concentration (MBC) was found to be 0.25 µg/mL (≈ 0.692 µM) in [7] (Staphylococcus aureus, strain 1816, MSSA multi-susceptible, broth microdilution, read-out: MBC) and 0.5 µg/mL (≈ 1.38 µM) in [9] (Staphylococcus aureus, strain 1334, MSSA multi-susceptible, broth microdilution, read-out: MBC). The MIC in series [1] (Staphylococcus aureus, strain 1818, MSSA multi-susceptible, broth microdilution, read-out: MIC) worked out at 0.25 µg/mL (≈ 0.692 µM); in [2] (Staphylococcus aureus, reference strain ATCC 29213, MSSA, broth microdilution, read-out: MIC) it was 0.5 µg/mL (≈ 1.38 µM); in series [3] (Staphylococcus aureus, strain 1333, MSSA multi-susceptible, broth microdilution, read-out: MIC), 0.5 µg/mL (≈ 1.38 µM); in series [4] (Staphylococcus aureus, strain 1815, MRSA gentamicin and erythromycin resistant, broth microdilution, read-out: MIC) it was 0.5 µg/mL (≈ 1.38 µM); in [5] (Staphylococcus aureus, strain 1814, MRSA ciprofloxacin resistant, broth microdilution, read-out: MIC), 4 µg/mL (≈ 11.1 µM); in [6] (Staphylococcus aureus, strain 1817, MSSA erythromycin resistant, broth microdilution, read-out: MIC) it was 0.25 µg/mL (≈ 0.692 µM). The MIC in [7] (Staphylococcus aureus, strain 1816, MSSA multi-susceptible, broth microdilution, read-out: MIC) was 0.25 µg/mL (≈ 0.692 µM); in [8] (setting [15]), 0.25 to 4 µg/mL (≈ 0.692 to 11.1 µM); in series [9] (Staphylococcus aureus, strain 1334, MSSA multi-susceptible, broth microdilution, read-out: MIC) it was 0.5 µg/mL (≈ 1.38 µM). In addition, in series [10], the “effect on intracellular inoculum in macrophages” value was “significantly reducing the intracellular inoculum”. Besides, in [11], the “effect on intracellular bacterial load in osteoblasts” value was “significantly reduced the bacterial load”. Moreover, in series [12], the “direct cytotoxicity on uninfected macrophages (MTT)” value is “no significant direct cytotoxicity”. Also, the “direct cytotoxicity on uninfected osteoblasts (MTT)” value in series [13] is reported as “did not observe any significant direct cytotoxicity”.

On to `CO[C@H]1/C=C/O[C@@]2(C)Oc3c(C)c(O)c4c(c3C2=O)C2=NC3(CCN(CC(C)C)CC3)NC2=C(NC(=O)/C(C)=C\C=C\[C@H](C)[C@H](O)[C@@H](C)[C@@H](O)[C@@H](C)[C@H](OC(C)=O)[C@@H]1C)C4=O` [rifabutin], for which, in [14], the “reduction in intracellular bacteria” value is given as “around 62.1%”.

For the compound `CO[C@H]1/C=C/O[C@@]2(C)Oc3c(C)c(O)c4c(O)c(c(/C=N/N5CCN(C)CC5)c(O)c4c3C2=O)NC(=O)/C(C)=C\C=C\[C@H](C)[C@H](O)[C@@H](C)[C@@H](O)[C@@H](C)[C@H](OC(C)=O)[C@@H]1C` [rifampicin], the “reduction in intracellular bacteria” value in series [14] is given as “approximately 54.0%”.

In the case of `CO[C@H]1/C=C/O[C@@]2(C)Oc3c(C)c(O)c4c(O)c(c(/C=N/N5CCN(C6CCCC6)CC5)c(O)c4c3C2=O)NC(=O)/C(C)=C\C=C\[C@H](C)[C@H](O)[C@@H](C)[C@@H](O)[C@@H](C)[C@H](OC(C)=O)[C@@H]1C` [rifapentine], the “reduction in intracellular bacteria” value in series [14] was 45.3%.

As to teicoplanin [TEC], the MBC in [1] (setting [16]) was 2 µg/mL; in series [2] (setting [17]), 1 µg/mL; in [3] (setting [18]), 1 µg/mL; in series [4] (setting [19]), 1 µg/mL; in series [5] (setting [20]) it was 1 µg/mL; in series [6] (setting [21]) it was 1 µg/mL. The MBC in [7] (setting [22]) and in series [9] (setting [23]) was 0.5 µg/mL in each case. In addition, the MIC in series [1] (setting [16]) came to 1 µg/mL; in [2] (setting [17]), 0.5 µg/mL; in series [3] (setting [18]), 0.5 µg/mL; in [4] (setting [19]) it was 0.5 µg/mL; in series [5] (setting [20]) it was 0.5 µg/mL; in [6] (setting [21]) it was 0.5 µg/mL. Besides, the MIC in series [7] (setting [22]) and in series [9] (setting [23]) was 0.25 µg/mL each time. Further, the “MICs for all S. aureus isolates” value in [8] (setting [15]) was 0.25 to 1 mg/L.
